Data on nine molecules can be found in paper PMC8766184, “Molecular Docking, Synthesis, and Tyrosinase Inhibition Activity of Acetophenone Amide: Potential Inhibitor of Melanogenesis” (BioMed Research International, 2022).

Read-outs that look alike come from different tables or passages of the source.

The IC50 is the concentration needed to halve the response being measured. As a reminder, the melting point is the temperature, or range, at which the solid turns liquid. By Ki is commonly meant a dissociation constant, usually derived from enzyme kinetics or from competition with a known ligand.

Data set [1] has as its target T1, mushroom tyrosinase (Agaricus bisporus, UniProt C7FF04).
T1 construct: purchased Sigma Aldrich
In words: In vitro mushroom tyrosinase inhibition assay (L-DOPA substrate, dopachrome absorbance). Type of data set: biochemical.
Protocol: In vitro antityrosinase potential was determined following the method previously described with little modifications [33, 34]. Briefly, 140 μL of sodium phosphate buffer, 20 μL (30 U/mL) of the enzyme mushroom tyrosinase, and 20 μL of the tested compound were added in a well of a 96-well microplate. After a preincubation of 10 minutes at room temperature of 20 μL (0.85 mM), the substrate L-DOPA was added followed by an incubation of 20 minutes at the same temperature. Subsequently, the absorbance of the intermediate dopachrome was recorded by using an Opti Max tunable microplate reader (Sunnyvale, USA) at 472 nm. […] The negative inhibitor was a phosphate buffer without an inhibitor.

Data set [2] concerns the target T1, mushroom tyrosinase. In words: Mushroom tyrosinase inhibitory kinetics (Lineweaver-Burk and Dixon plots). Type of data set: biochemical. The protocol:
Various concentrations of the inhibitor 5c were among 0.00 to 0.013 μM and that of L-DOPA was 0.00 to 0.0064 μM during all kinetic assays. For preincubation and calculations, the same protocol was followed as described in in vitro tyrosinase inhibition assay and continuous monitoring at 30 s interval for 5 minutes after adding the enzyme tyrosinase, and the formation of dopachrome was measured at 475 nm. The enzyme inhibitory action and the kind of inhibition were determined by the Lineweaver-Burk and Dixon plots. 1/V (inverse of velocities) versus 1/[S] (inverse of substrate concentration) mM^−1 were plotted to determine inhibition constant Ki.
The enzyme inhibitory interaction mechanism of 3(a–e) and 5(a–e) with the binding site of mushroom tyrosinase was determined using Michaelis-Menten kinetic studies. […] A striking reduction in the reaction rate in the presence of inhibitors refers to a decrease in the final absorbance in comparison to control without inhibitors. The inhibitory index of all these tested compounds varied depending upon the position of various substituents and classes of compounds [27]. Inhibition kinetics was analyzed by the Lineweaver-Burk and Dixon plots.

T1 sequence (C7FF04 1-392): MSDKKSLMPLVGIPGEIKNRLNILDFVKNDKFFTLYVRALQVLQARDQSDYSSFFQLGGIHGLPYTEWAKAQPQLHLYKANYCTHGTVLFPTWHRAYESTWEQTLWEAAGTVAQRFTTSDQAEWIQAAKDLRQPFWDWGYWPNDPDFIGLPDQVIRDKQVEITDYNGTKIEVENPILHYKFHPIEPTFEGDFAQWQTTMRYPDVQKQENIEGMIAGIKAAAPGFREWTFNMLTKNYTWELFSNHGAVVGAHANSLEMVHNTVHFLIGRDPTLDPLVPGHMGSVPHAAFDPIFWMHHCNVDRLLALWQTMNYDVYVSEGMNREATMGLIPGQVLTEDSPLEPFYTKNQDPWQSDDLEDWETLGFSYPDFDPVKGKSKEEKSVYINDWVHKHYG

In data set [1], `CC(=O)c1cccc(NC(=O)COC(=O)/C=C/c2ccc(O)cc2)c1` [Compound 5b, 2-(3-acetylphenylamino)-2-oxoethyl(E)-3-(4-hydroxyphenyl) acrylate] showed an IC50 of 309 ± 36.8 µM.

Take `CC(=O)c1cccc(NC(=O)COC(=O)C=Cc2ccccc2)c1` [Compound 5a, 2-(3-acetylphenylamino)-2-oxoethylcinnamate]: the melting point was in the range of 159 to 161 °C. Moreover, the IC50 in data set [1] came out at 46.4 ± 5.8 µM.

In data set [1], `CC(=O)c1cccc(NC(=O)COC(=O)c2cc(O)cc(O)c2)c1` [Compound 3e, 2-(3-acetylphenylamino)-2-oxoethyl 3,5-dihydroxybenzoate] displayed an IC50 of 255 ± 14.2 µM.

With `CC(=O)c1cccc(NC(=O)COC(=O)/C=C/c2ccc(Cl)cc2)c1` [Compound 5d, 2-(3-acetylphenylamino)-2-oxoethyl(E)-3-(4-chlorophenyl)acrylate], in data set [1], the midpoint of inhibition, the IC50, lay at 61.6 ± 11.4 µM.

For the molecule `CC(=O)c1cccc(NC(=O)COC(=O)c2cccc(O)c2)c1` [Compound 3a, 2-(3-acetylphenylamino)-2-oxoethyl-3-hydroxybenzoate], the IC50 in data set [1] amounted to 323 ± 16.9 µM.

Regarding `CC(=O)c1cccc(NC(=O)COC(=O)/C=C/c2ccc(O)cc2O)c1` [Compound 5c, 2-(3-acetylphenylamino)-2-oxoethyl(E)-3-(2,4-dihydroxyphenyl)acrylate], the half-inhibitory concentration (IC50) in data set [1] (L-DOPA 0.85 mM substrate, enzyme 30 U/mL, absorbance at 472 nm, read-out: Mushroom tyrosinase inhibition IC50 ± SEM) came out at 0.002 ± 0.0002 µM. For the same molecule, in data set [2] (Dixon plot, L-DOPA substrate, read-out: dissociation constant (Ki)), the Ki was 0.0072 µM. In addition, the type of inhibition result in data set [2] (Lineweaver-Burk plot, L-DOPA substrate) is listed as “competitive”. Also, in data set [2] (remaining enzyme activity vs enzyme concentration at various inhibitor doses, L-DOPA), the reversibility of inhibition result is reported as “reversible”.

Consider `CC(=O)c1cccc(NC(=O)COC(=O)c2ccc(O)c(O)c2)c1` [Compound 3d, 2-(3-acetylphenylamino)-2-oxoethyl 3,4-dihydroxybenzoate], for which, in data set [1], the midpoint of inhibition, the IC50, lay at 128 ± 8.5 µM.

In data set [1], `CC(=O)c1cccc(NC(=O)COC(=O)c2ccc(O)cc2O)c1` [Compound 3c, 2-(3-acetylphenylamino)-2-oxoethyl 2,4-dihydroxybenzoate] showed an IC50 of 27.4 ± 3.6 µM.

Consider `CC(=O)c1cccc(NC(=O)COC(=O)c2ccc(O)cc2)c1` [Compound 3b, 2-(3-acetylphenylamino)-2-oxoethyl-4-hydroxybenzoate], for which the IC50 in data set [1] is 288 ± 32.2 µM.
